From US7112605B2, “Sulfonyl-containing 3,4-diaryl-3-pyrrolin-2-ones, preparation method, and medical use thereof” (Research Institute of Materia Medica Chinese Acadamy of …, priority 2002, dated 2006)
pIC50: −log10 of the molar value. Where two headings read alike, the source gives them in different places.

Tests used:
[1] = test system: rat carrageenan-induced foot pad edema; test: Rat carrageenan-induced foot pad edema assay; type: in vivo, rats; conditions: 10 mg/kg oral
Procedure: Male Sprgue-Dawley rats (190–220 g) were fasted with free access to water at least 16 h prior to experiments. The rats were dosed orally with a 1 ml suspension of test compound in vehicle (0.5% methyl cellulose and 0.025% Tween-20) or with vehicle alone. One hour later a subplantar injection of 0.1 ml of 1% solution of caarageenan in 0.9% strile saline was administered to the right hind foot pad. Paw volume was measured with a displacement plethysmometer 2, 3, and 4 h after caarageenan injection.

Cyclooxygenase-2 = target: T1, Cyclooxygenase-2 (Mus musculus, UniProt Q05769); test: COX-2 assay: LPS-stimulated PGE2 production in mouse peritoneal macrophages (RIA); type: cell-based, mice; conditions: for pIC50: mouse peritoneal macrophages, LPS 1 mg/L 9 h, PGE2 by RIA; for COX-1/COX-2: ratio of IC50 COX-1 to IC50 COX-2
T1 construct: endogenous in cells; host or cells: thioglycollate-elicited peritoneal macrophages of male C57BL-6J mice
T1 sequence (Q05769 18-604): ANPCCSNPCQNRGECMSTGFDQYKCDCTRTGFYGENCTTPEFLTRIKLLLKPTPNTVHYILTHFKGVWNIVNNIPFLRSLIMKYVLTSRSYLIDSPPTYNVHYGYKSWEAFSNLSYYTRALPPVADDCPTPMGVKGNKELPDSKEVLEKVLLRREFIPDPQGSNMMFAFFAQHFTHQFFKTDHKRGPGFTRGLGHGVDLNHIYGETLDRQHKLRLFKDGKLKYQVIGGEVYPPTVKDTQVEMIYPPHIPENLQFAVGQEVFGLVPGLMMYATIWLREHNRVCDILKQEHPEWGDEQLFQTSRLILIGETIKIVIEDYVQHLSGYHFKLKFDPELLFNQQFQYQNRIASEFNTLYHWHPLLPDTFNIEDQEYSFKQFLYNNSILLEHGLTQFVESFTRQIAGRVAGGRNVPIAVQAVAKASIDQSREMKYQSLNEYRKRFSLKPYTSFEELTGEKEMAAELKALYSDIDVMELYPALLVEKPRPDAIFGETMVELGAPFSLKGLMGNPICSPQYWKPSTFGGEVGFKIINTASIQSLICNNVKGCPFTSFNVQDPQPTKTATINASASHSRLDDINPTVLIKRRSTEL
Procedure: Cell culture: Adherent macrophages were harvested from the peritoneal cells of male mice (C57BL-6J, Level 2, from Experiment Animal Center, Academy of Military Medical Science) 3 d after the injection (ip) of brewer thioglycollate medium (5 mL/100 g body weight). […] After settlement for 2˜3 h, non-adherent cells were washed by D-Hanks' balanced salt solution. […] Cell viability was examined by trypan blue dye exclusion. All incubation procedures were performed with 5% CO2 in humidified air at 37° C.
COX-2 assay: Macrophages were incubated with test compound at different concentrations or solvent (Me2SO) for 1 h and were stimulated with LPS 1 mg/L for 9 h. The amount of PGE2 in supernatants was measured by RIA. The inhibitory ratio was calculated using the same formula as in COX-1 assay section. Cs, Ct, Cc refer to PGE2 concentration in supernatants of LPS, test compound, and control groups, respectively.
(§1) [formula] Cs, Ct, Cc refer to 6-keto-PGF1[…] concentration in supernatants of calcimycin, test compound, and control groups, respectively.
(§2) Statistical analysis: Data were expressed as the mean±SD of more than three independent experiments. Dose-inhibitory effect curves were fit through “uphill dose response curves, variable slope” using Prism, GraphPad version3.00: […]

Cyclooxygenase-1 = target: T2, Cyclooxygenase-1 (Mus musculus, UniProt P22437); test: COX-1 assay: calcimycin-stimulated 6-keto-PGF1 production in mouse peritoneal macrophages (RIA); type: cell-based, mice; conditions: calcimycin 1 μmol/L 1 h, 6-keto-PGF1 by RIA
T2 construct: endogenous in cells; host or cells: thioglycollate-elicited peritoneal macrophages of male C57BL-6J mice
T2 sequence (P22437 27-602): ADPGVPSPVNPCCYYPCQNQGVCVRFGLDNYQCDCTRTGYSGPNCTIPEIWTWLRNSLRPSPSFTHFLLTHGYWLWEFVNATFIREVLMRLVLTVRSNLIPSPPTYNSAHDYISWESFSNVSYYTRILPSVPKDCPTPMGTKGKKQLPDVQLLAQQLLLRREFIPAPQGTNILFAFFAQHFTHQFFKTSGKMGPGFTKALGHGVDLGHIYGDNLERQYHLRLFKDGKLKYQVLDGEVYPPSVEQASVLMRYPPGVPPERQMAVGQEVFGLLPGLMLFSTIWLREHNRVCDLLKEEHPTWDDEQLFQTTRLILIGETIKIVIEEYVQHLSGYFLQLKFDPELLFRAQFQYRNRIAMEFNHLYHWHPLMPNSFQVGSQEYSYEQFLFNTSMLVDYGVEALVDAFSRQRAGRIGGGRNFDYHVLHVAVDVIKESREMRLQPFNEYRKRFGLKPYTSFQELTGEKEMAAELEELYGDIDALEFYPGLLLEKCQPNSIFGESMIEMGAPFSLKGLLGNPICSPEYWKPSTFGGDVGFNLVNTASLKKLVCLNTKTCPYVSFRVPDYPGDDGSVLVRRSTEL
Procedure: Cell culture: Adherent macrophages were harvested from the peritoneal cells of male mice (C57BL-6J, Level 2, from Experiment Animal Center, Academy of Military Medical Science) 3 d after the injection (ip) of brewer thioglycollate medium (5 mL/100 g body weight). Shortly, peritoneal cells obtained from 3˜4 mice were mixed and seeded in 48 well cell culture cluster (Costar) at a cell density of 1×10^9 cell/L in RPMI-1640 supplemented with 5% (v/v) newborn calf serum, 100 ku/L penicillin and […] streptomycin. After settlement for 2˜3 h, non-adherent cells were washed by D-Hanks' balanced salt solution. Then macrophages were cultured in RPMI-1640 without serum. Almost all of adherent cells were macrophages as assessed by Giemsa staining. Cell viability was examined by trypan blue dye exclusion. All incubation procedures were performed with 5% CO2 in humidified air at 37° C.
COX-1: assay Macrophages were incubated with test compound at different concentrations or solvent (Me2SO) for 1 h and were stimulated with calcimycin 1 μmol·L^−1 for 1 h. The amount of 6-keto-PGF1[…] (a stable metabolite of PGI2) in supernatants was measured by RIA according to manufacturer's guide. The inhibitory ratio was calculated as
as §1, §2

[2] = 3 h after carrageenan, read-out: inhibitory percentage of edema, 3 hr
[3] = 4 h after carrageenan, read-out: inhibitory percentage of edema, 4 hr

Row | Structure (SMILES) | pIC50 (Cyclooxygenase-2) | pIC50 (Cyclooxygenase-1) | COX-1/COX-2 (Cyclooxygenase-2) | inhibition at 10 mg/kg [1, 2] | inhibition at 10 mg/kg [1, 3]
1 | CCCN1CC(c2cccc(Cl)c2)=C(c2ccc(S(C)(=O)=O)cc2)C1=O [Example 110, N-Propyl-3-(4-methylsulfonylphenyl)-4-(3-chlorophenyl)-2,5-dihydropyrrole-2-one] | 6.11 |  |  | 25.8% | 36.7%
2 | CS(=O)(=O)c1ccc(C2=C(c3ccccc3)C(=O)OC2)cc1 [Rofecoxib, reference compound] | 8.02 | < 5.00 |  | 45.9% | 50.2%
3 | CN1CC(c2ccc(S(C)(=O)=O)cc2)=C(c2ccc(F)cc2)C1=O [Example 120, N-Methyl-3-(4-fluorophenyl)-4-(4-methylsulfonylphenyl)-2,5-dihydropyrrole-2-one] | 7.86 | 6.70 | 14.5 | 39.2% | 26.2%
4 | CN1CC(c2ccc(S(C)(=O)=O)cc2)=C(c2ccccc2)C1=O [Example 114, N-Methyl-3-phenyl-4-(4-methylsulfonylphenyl)-2,5-dihydropyrrole-2-one] | 7.85 | 5.95 | 78.9 |  | 
5 | CN1CC(c2cccc(Cl)c2)=C(c2ccc(S(C)(=O)=O)cc2)C1=O [Example 109, N-Methyl-3-(4-methylsulfonylphenyl)-4-(3-chlorophenyl)-2,5-dihydropyrrole-2-one] | 6.38 | < 5.00 |  |  | 
6 | CS(=O)(=O)c1ccc(C2=C(c3cccc(F)c3)CN(C3CC3)C2=O)cc1 [Example 113, N-Cyclopropyl-3-(4-methylsulfonylphenyl)-4-(3-fluorophenyl)-2,5-dihydropyrrole-2-one] | 6.00 | < 5.00 |  |  | 
7 | CCCN1CC(c2ccc(C)cc2)=C(c2ccc(S(C)(=O)=O)cc2)C1=O [Example 104, N-Propyl-3-(4-methylsulfonylphenyl)-4-(4-methylphenyl)-2,5-dihydropyrrole-2-one] |  |  |  | 24.5% | 19.3%
8 | CCCN1CC(c2ccc(F)cc2)=C(c2ccc(S(C)(=O)=O)cc2)C1=O [Example 106, N-Propyl-3-(4-methylsulfonylphenyl)-4-(4-fluorophenyl)-2,5-dihydropyrrole-2-one] | 6.21 | < 5.00 |  |  | 
9 | CS(=O)(=O)c1ccc(C2=C(c3ccccc3)CN(C3CCCCC3)C2=O)cc1 [Example 112, N-Cyclohexyl-3-(4-methylsulfonylphenyl)-4-phenyl-2,5-dihydropyrrole-2-one] | 5.75 | < 5.00 |  |  | 
10 | CS(=O)(=O)c1ccc(C2=C(c3ccc(Cl)cc3)CN(C3CC3)C2=O)cc1 [Example 107, N-Cyclopropyl-3-(4-methylsulfonylphenyl)-4-(4-chlorophenyl)-2,5-dihydropyrrole-2-one] | 6.38 | < 5.00 |  |  | 
11 | CS(=O)(=O)c1ccc(C2=C(c3ccccc3)C(=O)N(C3CC3)C2)cc1 [Example 116, N-Cyclopropyl-3-phenyl-4-(4-methylsulfonylphenyl)-2,5-dihydropyrrole-2-one] | 7.60 | 6.33 | 18.5 |  | 

Continued, in another order:

Row | pIC50 (Cyclooxygenase-2) | pIC50 (Cyclooxygenase-1) | COX-1/COX-2 (Cyclooxygenase-2) | Structure (SMILES) | inhibition at 10 mg/kg [1, 2] | inhibition at 10 mg/kg [1, 3]
12 | 6.00 | < 5.00 |  | CCCN1CC(c2cccc(Br)c2)=C(c2ccc(S(N)(=O)=O)cc2)C1=O [Example 132, N-Propyl-3-(4-aminosulfonylphenyl)-4-(3-bromophenyl)-2,5-dihydropyrrole-2-one] |  | 
13 | 7.61 | 8.10 |  | CCCN1CC(c2ccc(S(C)(=O)=O)cc2)=C(c2ccc(Cl)cc2)C1=O [Example 124, N-Propyl-3-(4-chlorophenyl)-4-(4-methylsulfonylphenyl)-2,5-dihydropyrrole-2-one] | 39.4% | 32.7%
14 | 5.77 | < 5.00 |  | NS(=O)(=O)c1ccc(C2=C(c3cccc(Cl)c3)CN(C3CC3)C2=O)cc1 [Example 137, N-Cylcopropyl-3-(4-aminosulfonylphenyl)-4-(3-chlorophenyl)-2,5-dihydropyrrole-2-one] |  | 
15 | 7.71 | 6.92 |  | CCCN1CC(c2ccc(S(C)(=O)=O)cc2)=C(c2cccc(C)c2)C1=O [Example 121, N-Propyl-3-(3-methylphenyl)-4-(4-methylsulfonylphenyl)-2,5-dihydropyrrole-2-one] |  | 
16 | 7.73 | < 5.00 |  | Cc1cccc(C2=C(c3ccc(S(N)(=O)=O)cc3)CN(C3CC3)C2=O)c1 [Example 141, N-Cylcopropyl-3-(3-methylphenyl)-4-(4-aminosulfonylphenyl)-2,5-dihydropyrrole-2-one] |  | 
17 | 7.81 | 6.66 | 14.3 | Cc1cccc(C2=C(c3ccc(S(C)(=O)=O)cc3)CN(C3CC3)C2=O)c1 [Example 126, N-Cyclopropyl-3-(3-methylphenyl)-4-(4-methylsulfonylphenyl)-2,5-dihydropyrrole-2-one] |  | 
18 | 6.25 | < 5.00 |  | CCCN1CC(c2cccc(F)c2)=C(c2ccc(S(N)(=O)=O)cc2)C1=O [Example 135, N-Propyl-3-(4-aminosulfonylphenyl)-4-(3-fluorophenyl)-2,5-dihydropyrrole-2-one] |  | 
19 | 7.68 | 6.84 |  | CS(=O)(=O)c1ccc(C2=C(c3ccc(Cl)cc3)C(=O)N(C3CCCCC3)C2)cc1 [Example 127, N-Cyclohexyl-3-(4-chlorophenyl)-4-(4-methylsulfonylphenyl)-2,5-dihydropyrrole-2-one] |  | 
20 | 6.32 |  |  | CCCN1CC(c2cccc(Cl)c2)=C(c2ccc(S(N)(=O)=O)cc2)C1=O [Example 133, N-Propyl-3-(4-aminosulfonylphenyl)-4-(3-chlorophenyl)-2,5-dihydropyrrole-2-one] |  | 
21 | 7.18 | < 5.00 |  | CS(=O)(=O)c1ccc(C2=C(c3ccc(F)cc3)C(=O)N(C3CC3)C2)cc1 [Example 128, N-Cyclopropyl-3-(4-fluorophenyl)-4-(4-methylsulfonylphenyl)-2,5-dihydropyrrole-2-one] |  | 
